Test results taken from ChEMBL document CHEMBL1201862, “PubChem BioAssay data set” (2004).
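Where inhibition never reached the appropriate level, the endpoint shown equals the highest concentration tested. Otherwise, values were interpolated linearly from a five-concentration, 48-hour dose response in 96-well plates. Here, GI50 denotes the concentration required for 50% inhibition of growth.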 Active and inactive are the calls of the source. Rule as the data show it: active = GI50 up to about 1.1 µM and inactive = higher.

Assays:
Assay in all cases: NCI-60 cell line screen, 48 h
[1] = system: 786-0
[2] = system: A498
[3] = system: A549
[4] = system: CAKI-1
[5] = system: CCRF-CEM
[6] = system: HCT-116
[7] = system: HCT-15
[8] = system: HOP-62
[9] = system: Hs-578T
[10] = system: LOX IMVI
[11] = system: MDA-MB-435
[12] = system: NCI-H522
[13] = system: OVCAR-3
[14] = system: OVCAR-8
[15] = system: SF-295
[16] = system: SK-OV-3
[17] = system: SN12C
[18] = system: SR
[19] = system: U-251
[20] = system: UACC-62

Row | SMILES | GI50 [1] | GI50 [2] | GI50 [3] | GI50 [4] | GI50 [5] | GI50 [6] | GI50 [7] | GI50 [8] | GI50 [9] | GI50 [10] | GI50 [11] | GI50 [12] | GI50 [13] | GI50 [14] | GI50 [15] | GI50 [16] | GI50 [17] | GI50 [18] | GI50 [19] | GI50 [20]
1 | COc1ccc(Cc2cc(OC)c(OC)c(OC)c2)cc1O | 0.116 µM (active) | 25.2 µM (inactive) | 0.119 µM (active) | > 24.7 µM (inactive) | 0.0177 µM (active) | 0.064 µM (active) | 0.019 µM | 0.109 µM (active) | 0.0137 µM (active) | 0.0547 µM (active) | < 0.01 µM (active) | 0.12 µM (active) | 0.0365 µM (active) | 0.0769 µM (active) | 0.286 µM (active) | 0.274 µM (active) | 0.173 µM (active) | 0.0194 µM (active) | 0.0982 µM (active) | 0.457 µM (active)
2 | O=C1NC2(CN3CCC2CC3)C(=O)N1CN(Cc1ccccc1)c1ccccc1 (configuration not stated) | > 100 µM (inactive) | > 100 µM (inactive) | 81.1 µM (inactive) | > 100 µM (inactive) | – | > 100 µM (inactive) | 41.2 µM | > 100 µM (inactive) | > 100 µM (inactive) | 35.2 µM (inactive) | > 100 µM (inactive) | 94.6 µM (inactive) | > 100 µM (inactive) | 57 µM (inactive) | > 100 µM (inactive) | > 100 µM (inactive) | 71 µM (inactive) | 25.3 µM (inactive) | > 100 µM (inactive) | > 100 µM (inactive)
3 | CCOC(=O)Cc1c(C)c2ccc(OC(C)=O)c(OC(C)=O)c2oc1=O | 27.7 µM (inactive) | 44.1 µM (inactive) | 21.9 µM (inactive) | – | 4.09 µM (inactive) | 34 µM (inactive) | 18.7 µM | 40.6 µM (inactive) | 32.4 µM (inactive) | 25.3 µM (inactive) | 28.1 µM (inactive) | – | 20.1 µM (inactive) | 18.6 µM (inactive) | 36.7 µM (inactive) | > 100 µM (inactive) | 41.8 µM (inactive) | 14.3 µM (inactive) | 23.1 µM (inactive) | 32.7 µM (inactive)
4 | CCOC(=O)c1oc2cc3c(c4c2c1-c1ccccc1N4C)C=CC(C)(C)O3 | 7.06 µM (inactive) | 25.9 µM (inactive) | 24.5 µM (inactive) | 15.9 µM (inactive) | 12.4 µM (inactive) | 14.2 µM (inactive) | 50.4 µM | 6.84 µM (inactive) | 19.9 µM (inactive) | 16.4 µM (inactive) | 52.1 µM (inactive) | 8.71 µM (inactive) | 9.59 µM (inactive) | 5.85 µM (inactive) | 8.81 µM (inactive) | 13.4 µM (inactive) | 40.6 µM (inactive) | 0.56 µM (active) | 7.5 µM (inactive) | 11.9 µM (inactive)
5 | COc1cc2c(c(OC)c1OC)-c1ccc(OC)c(=O)cc1C(NC(=O)COc1ccccc1)CC2 (configuration not stated) | < 0.01 µM (active) | < 0.01 µM (active) | < 0.01 µM (active) | < 0.01 µM (active) | 0.0162 µM (active) | < 0.01 µM (active) | 0.0104 µM | < 0.01 µM (active) | < 0.01 µM (active) | < 0.01 µM (active) | < 0.01 µM (active) | < 0.01 µM (active) | < 0.01 µM (active) | < 0.01 µM (active) | < 0.01 µM (active) | 0.0282 µM (active) | < 0.01 µM (active) | < 0.01 µM (active) | < 0.01 µM (active) | < 0.01 µM (active)
6 | CCCCCCCCCCCCN1[C@H]2CCC[C@H]2C(O)[C@@H]2CCC[C@@H]21 (some centres not stated) | > 100 µM (inactive) | > 100 µM (inactive) | > 100 µM (inactive) | > 100 µM (inactive) | > 100 µM (inactive) | 53.8 µM (inactive) | 56.4 µM | > 100 µM (inactive) | > 100 µM (inactive) | 81.8 µM (inactive) | > 100 µM (inactive) | – | > 100 µM (inactive) | > 100 µM (inactive) | – | > 100 µM (inactive) | 52.8 µM (inactive) | 41 µM (inactive) | 77.4 µM (inactive) | > 100 µM (inactive)
7 | c1cn(C23C4C5C6C4C2C6C53)cn1 (configuration not stated) | > 100 µM (inactive) | > 100 µM (inactive) | > 100 µM (inactive) | – | > 100 µM (inactive) | > 100 µM (inactive) | > 100 µM | > 100 µM (inactive) | > 100 µM (inactive) | > 100 µM (inactive) | > 100 µM (inactive) | > 100 µM (inactive) | – | > 100 µM (inactive) | > 100 µM (inactive) | > 100 µM (inactive) | > 100 µM (inactive) | > 100 µM (inactive) | > 100 µM (inactive) | –
